From patent US20250353820A1, “ANTIVIRAL PYRAZOLOPYRIDINONE COMPOUNDS” (Novartis AG, priority 2019, published 2025) come the findings set out here.

In the test the target is human HSV DNA polymerase UL30 (Human herpesvirus 1 (strain 17) (HHV-1) (Human herpes simplex virus 1), UniProt P04293). The test is described as follows: biochemical. The settings on record: 625 pM HSV polymerase, 20 minutes at room temperature; read-out: HSV-polymerase Biochemical IC50.
Usually IC50 stands for the concentration that inhibits the measured activity by half. As for `Cn1ccc(NS(=O)(=O)C2(CN3CCc4c(C(=O)NCc5ccc(C#N)cc5)nn(C)c4C3=O)CC2)n1` [Example 156], the IC50 is 62 nM. Under `CS(=O)(=O)C1(CN2CCc3c(C(=O)NCc4ccc(C#N)cc4)nn(CC4(CO)CC4)c3C2=O)CC1` [Example 48, N-(4-Cyanobenzyl)-1-((1-(hydroxymethyl)cyclopropyl)methyl)-6-((1-(methylsulfonyl)cyclopropyl)methyl)-7-oxo-4,5,6,7-tetrahydro-1H-pyrazolo[3,4-c]pyridine-3-carboxamide] stands 801 nM; under `Cn1nc(C(=O)NCc2ccc(C#N)cc2)c2c1C(=O)N(CC1(S(=O)(=O)NCCO)CC1)CC2` [Example 145, N-(4-Cyanobenzyl)-6-((1-(N-(2-hydroxyethyl)sulfamoyl)cyclopropyl)methyl)-1-methyl-7-oxo-4,5,6,7-tetrahydro-1H-pyrazolo[3,4-c]pyridine-3-carboxamide], 237 nM. In the case of `Cn1nc(C(=O)NCc2ccc(C#N)cc2)c2c1C(=O)N(CC1(S(=O)(=O)C3(C)COC3)CC1)CC2` [Example 172, N-(4-Cyanobenzyl)-1-methyl-6-((1-((3-methyloxetan-3-yl)sulfonyl)cyclopropyl)methyl)-7-oxo-4,5,6,7-tetrahydro-1H-pyrazolo[3,4-c]pyridine-3-carboxamide], the IC50 stood at 63 nM. Under `Cn1nc(C(=O)NCc2ccc(Cl)cc2)c2c1C(=O)N(CC1(S(=O)(=O)C3(C(O)CN)CC3)CC1)CC2` (stereo not shown) [Example 209] stands 16 nM. To `COc1cccc(NS(=O)(=O)C2(CN3CCc4c(C(=O)NCc5ccc(C#N)cc5)nn(C)c4C3=O)CC2)n1` [Example 163] belongs 36 nM; to `CCC(=O)Cn1nc(C(=O)NCc2ccc(C#N)cc2)c2c1C(=O)N(CC1(S(=O)(=O)C3CC3)CC1)CC2` [Example 227, N-(4-cyanobenzyl)-6-((1-(cyclopropylsulfonyl)cyclopropyl)methyl)-7-oxo-1-(2-oxobutyl)-4,5,6,7-tetrahydro-1H-pyrazolo[3,4-c]pyridine-3-carboxamide], 31 nM; to `Cn1nc(C(=O)NCc2ccc(C#N)cc2)c2c1C(=O)N(CC1(S(=O)(=O)NC3CCNCC3)CC1)CC2` [Example 137, N-(4-Cyanobenzyl)-1-methyl-7-oxo-6-((1-(N-(piperidin-4-yl)sulfamoyl)cyclopropyl)methyl)-4,5,6,7-tetrahydro-1H-pyrazolo[3,4-c]pyridine-3-carboxamide], 691 nM. Under `Cn1nc(-c2cn(Cc3ccc(C#N)cc3)nn2)c2c1C(=O)N(CC1(S(=O)(=O)C3CC3)CC1)CC2` [Example 35, 4-((4-(6-((1-(Cyclopropylsulfonyl)cyclopropyl)methyl)-1-methyl-7-oxo-4,5,6,7-tetrahydro-1H-pyrazolo[3,4-c]pyridin-3-yl)-1H-1,2,3-triazol-1-yl)methyl)benzonitrile] stands 141 nM. Consider `O=C(NCc1ccc(Cl)cc1)c1nn(CCO)c2c1CCN(CC1(S(=O)(=O)C3CC3)CC1)C2=O` [Example 218], for which the IC50 stood at 50 nM. As to `Cc1cc(CNC(=O)c2nn(C)c3c2CCN(CC2(S(=O)(=O)C4CC4)CC2)C3=O)ccc1C#N` [Example 11, N-(4-Cyano-3-methylbenzyl)-6-((1-(cyclopropylsulfonyl)cyclopropyl)methyl)-1-methyl-7-oxo-4,5,6,7-tetrahydro-1H-pyrazolo[3,4-c]pyridine-3-carboxamide], the IC50 is 2230 nM.

Regarding `CC1(S(=O)(=O)C2(CN3CCc4c(C(=O)NCc5ccc(C#N)cc5)nn(CCO)c4C3=O)CC2)CC1` [Example 217], the IC50 came to 26 nM.

On to `Cn1nc(C(=O)NCc2ccc(C#N)cc2)c2c1C(=O)N(CC1(S(=O)(=O)C(C)(C)[C@H](N)CO)CC1)CC2` [Example 213, (R)-6-((1-((3-amino-4-hydroxy-2-methylbutan-2-yl)sulfonyl)cyclopropyl)methyl)-N-(4-cyanobenzyl)-1-methyl-7-oxo-4,5,6,7-tetrahydro-1H-pyrazolo[3,4-c]pyridine-3-carboxamide], for which the IC50 is 48 nM.
